The values that follow come from patent publication US20060241173A1, “Compound” (Sterix Ltd., priority 1996, published 2006).

The structures appear in SMILES notation.

One data set addresses T1, sulphatase (Rattus norvegicus, UniProt P15589).
T1 construct: from tissue; host or cells: rat white blood cells
T1 sequence (P15589 20-577): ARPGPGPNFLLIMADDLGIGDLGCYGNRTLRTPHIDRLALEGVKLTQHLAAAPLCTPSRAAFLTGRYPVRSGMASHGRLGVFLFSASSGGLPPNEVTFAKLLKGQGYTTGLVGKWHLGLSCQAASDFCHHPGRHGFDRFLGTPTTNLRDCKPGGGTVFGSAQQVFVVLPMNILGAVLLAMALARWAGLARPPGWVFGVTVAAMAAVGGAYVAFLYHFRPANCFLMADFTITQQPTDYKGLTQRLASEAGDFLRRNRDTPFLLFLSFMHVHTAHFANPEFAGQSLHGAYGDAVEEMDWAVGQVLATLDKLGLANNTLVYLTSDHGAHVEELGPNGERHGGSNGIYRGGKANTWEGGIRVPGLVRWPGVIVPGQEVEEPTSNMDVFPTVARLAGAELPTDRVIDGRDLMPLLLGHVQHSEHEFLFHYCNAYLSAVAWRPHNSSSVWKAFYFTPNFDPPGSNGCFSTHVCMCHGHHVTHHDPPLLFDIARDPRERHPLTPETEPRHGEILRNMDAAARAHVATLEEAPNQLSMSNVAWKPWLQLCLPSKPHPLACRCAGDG
Briefly: Oral dosing in rats: sulphatase activity in white blood cells. It is filed as in vivo.

In data set [1] the target is T2, E1-STS (Homo sapiens, UniProt P08842).
T2 sequence (P08842 22-583): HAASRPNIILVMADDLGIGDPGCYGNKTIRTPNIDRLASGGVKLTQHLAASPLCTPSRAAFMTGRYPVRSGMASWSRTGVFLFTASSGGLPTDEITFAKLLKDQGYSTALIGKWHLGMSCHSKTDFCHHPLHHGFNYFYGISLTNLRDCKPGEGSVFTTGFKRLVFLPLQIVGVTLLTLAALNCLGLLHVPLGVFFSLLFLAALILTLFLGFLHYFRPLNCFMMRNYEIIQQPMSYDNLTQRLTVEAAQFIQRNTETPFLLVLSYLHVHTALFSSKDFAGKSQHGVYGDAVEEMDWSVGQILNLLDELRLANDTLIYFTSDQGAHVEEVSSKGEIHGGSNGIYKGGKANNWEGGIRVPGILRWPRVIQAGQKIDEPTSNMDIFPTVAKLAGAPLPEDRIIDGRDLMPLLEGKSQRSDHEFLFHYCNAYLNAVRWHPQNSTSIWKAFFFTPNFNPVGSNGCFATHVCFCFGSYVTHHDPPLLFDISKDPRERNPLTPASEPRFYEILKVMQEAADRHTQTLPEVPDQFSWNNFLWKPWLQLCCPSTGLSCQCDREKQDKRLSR
Briefly: Time- and concentration-dependent inactivation of oestrone sulphatase in placental microsomes. It is filed as biochemical. Details: from tissue; host or cells: placental microsomes (100,000 g fraction).

A further data set relates to uterine weight. Description: Oestrogenic activity: uterine weight in ovariectomised rats. It is filed as in vivo, rat. Particulars: 1 mg/kg subcutaneously for 5 days.
The target of data set [2] is T3, E1-STS (Rattus norvegicus, UniProt P15589).
T3 sequence (P15589 20-577): T1 sequence (P15589 20-577)
Description: Oral activity in rats (preliminary data). It is filed as in vivo. Details: The E1-STS activity in the uteri obtained from these animals; from tissue; host or cells: rat uterus.

On to `Cc1cc(=O)oc2cc(OS(N)(=O)=O)ccc12` [Compound 14], for which the “% Inhibition MD” value on sulphatase (oral daily for seven days 0.1 mg/kg) is 65%; at sulphatase (oral daily for seven days 1.0 mg/kg) it was 85%; at sulphatase (oral daily for seven days 10.0 mg/kg), 89%. Further, the “% Inhibition SD” value turned out to be 72% on sulphatase (oral single dose 0.1 mg/kg), 85% at sulphatase (oral single dose 1.0 mg/kg) and 96% on sulphatase (oral single dose 10.0 mg/kg). For the same molecule, the “Manner of E1-STS inhibition (in words)” value at E1-STS [1] is “time- and concentration-dependent manner in a biphasic fashion”. The “Uterine weight (oestrogenic agonist properties)” value in the data set with uterine weight is on record as “did not result in any significant increase in the uterine weight”. Moreover, the “Oral activity in rats (in words)” value at E1-STS [2] is given as “potent oral activity”.
